Patent US9832994B2, “Thymol and totarol antibacterial composition” (COLGATE-PALMOLIVE COMPANY, priority 2011, dated 2017)

Key:
E. coli = experiment: Minimum Inhibition Concentration (MIC) and Fractional Inhibitory Concentration (FIC) against E. coli; type: cell-based; conditions: Escherichia coli, single active, tryptic soy broth, 96 well plate, 16-24 hours at 37° C
Protocol: (§1) Minimum Inhibition Concentration (MIC) Serial dilutions of the active are combined with tryptic soy broth and 0.1 optical density of bacteria in a 96 well plate. The optical density of the mixture is measured after 16-24 hours at 37° C. An increase in optical density represents bacterial growth. The plate is analyzed to determine the minimum concentration needed to inhibit growth of bacteria. Numbers are reported in ppm. The MIC values are determined for thymol and totarol against E. Coli and S. aureus. The MIC dose response assay is conducted just as the MIC, however, one active's concentration is kept constant and the other active's concentration follows a two-fold serial dilution. Fractional Inhibition Concentration (FIC) The MIC values are also determined for thymol in the presence of totarol to determine the Fractional Inhibitory Concentration (FIC). This calculation accounts for the fractional activity of thymol and totarol within a MIC test. [formula] such that: [table]

S. aureus = experiment: Minimum Inhibition Concentration (MIC) and Fractional Inhibitory Concentration (FIC) against S. aureus; type: cell-based; conditions: Staphylococcus aureus, single active, tryptic soy broth, 96 well plate, 16-24 hours at 37° C
Protocol: as §1

| MIC (E. coli) [µg/mL] | MIC (S. aureus) [µg/mL] | Compound |
| --- | --- | --- |
| 125 |  | Cc1ccc(C(C)C)c(O)c1 [Thymol, thymol] |
| 125 | 31.2 | CC(C)c1c(O)ccc2c1CC[C@H]1C(C)(C)CCC[C@]21C [Totarol, totarol] |
